Source: patent US9884849B2, “Fluorinated benzofuranyl-pyrimidine derivatives containing a sulfoximine group” (Bayer Pharma Aktiengesellschaft, priority 2014, dated 2018)

Tests used:
CDK2/CycE = biological target: T1, CDK2/CycE (Homo sapiens, UniProt P24941); assay: CDK2/CycE kinase assay (Method 2a, TR-FRET); assay type: biochemical; conditions: 10 μM ATP
T1 construct: GST; purchased ProQinase GmbH (Freiburg, Germany); host or cells: insect cells (Sf9)
Text: 2a. CDK2/CycE kinase assay:
CDK2/CycE-Inhibitory Activity of Compounds of the Present Invention was Quantified Employing the CDK2/CycE TR-FRET Assay as Described in the Following Paragraphs:
Recombinant fusion proteins of GST and human CDK2 and of GST and human CycE, expressed in insect cells (Sf9) and purified by Glutathion-Sepharose affinity chromatography, were purchased from ProQinase GmbH (Freiburg, Germany). As substrate for the kinase reaction biotinylated peptide biotin-Ttds-YISPLKSPYKISEG (C-terminus in amid form) was used which can be purchased e.g. form the company JERINI Peptide Technologies (Berlin, Germany).
For the assay 50 nl of a 100 fold concentrated solution of the test compound in DMSO was pipetted into a black low volume 384 well microtiter plate (Greiner Bio-One, Frickenhausen, Germany), 2 yl of a solution of CDK2/CycE in aqueous assay buffer [50 mM Tris/HCl pH 8.0, 10 mM MgCl2, 1.0 mM dithiothreitol, 0.1 mM sodium ortho-vanadate, 0.01% (v/v) Nonidet-P40 (Sigma)] were added and the mixture was incubated for 15 min at 22° C. to allow pre-binding of the test compounds to the enzyme before the start of the kinase reaction. […] The concentration of CDK2/CycE was adjusted depending of the activity of the enzyme lot and was chosen appropriate to have the assay in the linear range, typical concentrations were in the range of 130 ng/mL. The reaction was stopped by the addition of 5 yl of a solution of TR-FRET detection reagents (0.2 μM streptavidine-XL665 [Cisbio Bioassays, Codolet, France] and 1 nM anti-RB(pSer807/pSer811)-antibody from BD Pharmingen [#558389] and 1.2 nM LANCE EU-W1024 labeled anti-mouse IgG antibody [Perkin-Elmer, product no. AD0077]) in an aqueous EDTA-solution (100 mM EDTA, 0.2% (w/v) bovine serum albumin in 100 mM HEPES/NaOH pH 7.0).
(§1) The resulting mixture was incubated 1 h at 22° C. to allow the formation of complex between the phosphorylated biotinylated peptide and the detection reagents. Subsequently the amount of phosphorylated substrate was evaluated by measurement of the resonance energy transfer from the Eu-chelate to the streptavidine-XL. Therefore, the fluorescence emissions at 620 nm and 665 nm after excitation at 350 nm was measured in a TR-FRET reader, e.g. a Rubystar (BMG Labtechnologies, Offenburg, Germany) or a Viewlux (Perkin-Elmer). The ratio of the emissions at 665 nm and at […] was taken as the measure for the amount of phosphorylated substrate. The data were normalised (enzyme reaction without inhibitor=0% inhibition, all other assay components but no enzyme=100% inhibition).

CDK9/CycT1 = biological target: T2, CDK9/CycT1 (Homo sapiens, UniProt P50750); assay: CDK9/CycT1 high ATP kinase assay (Method 1b, TR-FRET); assay type: biochemical; conditions: 2 mM ATP; for Selectivity high ATP CDK9 over high ATP CDK2: IC50 (high ATP CDK2)/IC50 (high ATP CDK9): Methods 1b. and 2b.
T2 construct: Recombinant full-length His-tagged human CDK9 and CycT1; His; purchased Invitrogen PV4131; host or cells: insect cells
Method: 1b. CDK9/CycT1 High ATP Kinase Assay
CDK9/CycT1-Inhibitory Activity of Compounds of the Present Invention at a High ATP Concentration after Preincubation of Enzyme and Test Compounds was Quantified Employing the CDK9/CycT1 TR-FRET Assay as Described in the Following Paragraphs.
Recombinant full-length His-tagged human CDK9 and CycT1, expressed in insect cells and purified by Ni-NTA affinity chromatography, were purchase from Invitrogen (Cat. No PV4131). As substrate for the kinase reaction biotinylated peptide biotin-Ttds-YISPLKSPYKISEG (C-terminus in amid form) was used which can be purchased e.g. form the company JERINI peptide technologies (Berlin, Germany). For the assay 50 nl of a 100 fold concentrated solution of the test compound in DMSO was pipetted into a black low volume 384 well microtiter plate (Greiner Bio-One, Frickenhausen, Germany), 2 μl of a solution of CDK9/CycT1 in aqueous assay buffer [50 mM Tris/HCl pH 8.0, 10 mM MgCl2, 1.0 mM dithiothreitol, 0.1 mM sodium ortho-vanadate, 0.01% (v/v) Nonidet-P40 (Sigma)] were added and the mixture was incubated for 15 min at 22° C. to allow pre-binding of the test compounds to the enzyme before the start of the kinase reaction. Then the kinase reaction was started by the addition of 3 μl of a solution of adenosine-tri-phosphate (ATP, 3.3 mM=>final conc. in the 5 μl assay volume is 2 mM) and substrate (1.67 μM=>final conc. in the 5 μl assay volume is 1 μM) in assay buffer and the resulting mixture was incubated for a reaction time of 25 min at 22° C. The concentration of CDK9/CycT1 was adjusted depending of the activity of the enzyme lot and was chosen appropriate to have the assay in the linear range, typical concentrations were in the range of 0.5 μg/mL. The reaction was stopped by the addition of 5 μl of a solution of TR-FRET detection reagents (0.2 μM streptavidine-XL665 [Cisbio Bioassays, Codolet, France] and 1 nM anti-RB(pSer807/pSer811)-antibody from BD Pharmingen [#558389] and 1.2 nM LANCE EU-W1024 labeled anti-mouse IgG antibody [Perkin-Elmer, product no. AD0077]) in an aqueous EDTA-solution (100 mM EDTA, 0.2% (w/v) bovine serum albumin in 100 mM HEPES/NaOH pH 7.0).
as §1, with “HTRF” for “TR-FRET”

T2 sequence (P50750 whole entry): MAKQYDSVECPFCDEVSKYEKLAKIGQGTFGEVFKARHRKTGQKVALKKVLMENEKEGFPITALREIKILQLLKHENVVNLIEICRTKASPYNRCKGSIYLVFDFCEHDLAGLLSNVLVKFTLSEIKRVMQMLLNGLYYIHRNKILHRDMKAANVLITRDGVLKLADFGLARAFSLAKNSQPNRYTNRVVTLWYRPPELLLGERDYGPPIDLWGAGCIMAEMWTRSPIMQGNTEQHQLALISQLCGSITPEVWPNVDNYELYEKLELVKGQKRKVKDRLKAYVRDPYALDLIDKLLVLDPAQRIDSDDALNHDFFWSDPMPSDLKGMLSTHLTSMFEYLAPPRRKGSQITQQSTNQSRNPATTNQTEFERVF
T2 sequence (O60563 whole entry partner): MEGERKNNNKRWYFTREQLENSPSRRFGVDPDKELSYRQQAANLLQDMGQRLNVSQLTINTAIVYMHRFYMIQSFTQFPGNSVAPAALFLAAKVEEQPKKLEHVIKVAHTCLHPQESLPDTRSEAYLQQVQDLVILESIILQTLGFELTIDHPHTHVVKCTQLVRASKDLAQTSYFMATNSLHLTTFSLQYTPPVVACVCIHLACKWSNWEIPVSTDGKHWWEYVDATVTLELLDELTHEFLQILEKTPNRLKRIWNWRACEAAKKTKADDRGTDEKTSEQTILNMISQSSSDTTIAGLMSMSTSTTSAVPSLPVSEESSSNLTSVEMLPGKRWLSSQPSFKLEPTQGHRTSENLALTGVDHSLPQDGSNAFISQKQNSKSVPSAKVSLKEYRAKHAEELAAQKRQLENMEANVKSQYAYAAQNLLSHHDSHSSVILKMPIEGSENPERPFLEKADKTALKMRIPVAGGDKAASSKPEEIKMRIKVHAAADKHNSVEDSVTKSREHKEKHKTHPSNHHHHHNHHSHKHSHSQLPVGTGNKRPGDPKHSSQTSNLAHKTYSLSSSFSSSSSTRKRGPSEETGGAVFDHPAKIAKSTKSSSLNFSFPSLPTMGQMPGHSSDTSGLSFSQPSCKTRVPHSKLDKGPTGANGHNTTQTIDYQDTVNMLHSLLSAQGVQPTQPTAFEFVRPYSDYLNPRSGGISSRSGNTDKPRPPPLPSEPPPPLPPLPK

| Structure (SMILES) | IC50 (CDK2/CycE) [nM] | IC50 (CDK9/CycT1) [nM] | Selectivity high ATP CDK9 over high ATP CDK2: IC50 (high ATP CDK2)/IC50 (high ATP CDK9) (CDK9/CycT1) |
| --- | --- | --- | --- |
| CS(=O)(Cc1cc(F)cc(Nc2ncc(F)c(-c3ccc(F)c4ccoc34)n2)c1)=NC#N (single isomer, unassigned) [Example 8, [(3-Fluoro-5-{[5-fluoro-4-(4-fluoro-1-benzofuran-7-yl)pyrimidin-2-yl]amino}benzyl)(methyl)-oxido-λ^6-sulfanylidene]cyanamide] | 62 | 1 | 812 |
| CS(=N)(=O)Cc1cccc(Nc2ncc(F)c(-c3ccc(F)c4ccoc34)n2)c1 (racemic) [Example 4, (rac)-5-Fluoro-4-(4-fluoro-1-benzofuran-7-yl)-N-{3-[(S-methylsulfonimidoyl)-methyl]phenyl}-pyrimidin-2-amine] | 110 | 22 | 23 |
| CS(=O)(Cc1cc(F)cc(Nc2ncc(F)c(-c3ccc(F)c4ccoc34)n2)c1)=NC#N (single isomer, unassigned) [Example 9, [(3-Fluoro-5-{[5-fluoro-4-(4-fluoro-1-benzofuran-7-yl)pyrimidin-2-yl]amino}benzyl)(methyl)-oxido-λ^6-sulfanylidene]cyanamide] | 88 | 3.4 | 656 |
| CS(=N)(=O)Cc1cc(F)cc(Nc2ncc(F)c(-c3ccc(F)c4ccoc34)n2)c1 (single isomer, unassigned) [Example 11, 5-Fluoro-4-(4-fluoro-1-benzofuran-7-yl)-N-{3-fluoro-5-[(S-methylsulfonimidoyl)-methyl]-phenyl}-pyrimidin-2-amine] | 73 | 3.7 | 247 |
| Cc1cc(CS(C)(=N)=O)cc(Nc2ncc(F)c(-c3ccc(F)c4ccoc34)n2)c1 (racemic) [Example 16, (rac)-5-Fluoro-4-(4-fluoro-1-benzofuran-7-yl)-N-{3-methyl-5-[(S-methylsulfonimidoyl)-methyl]phenyl}pyrimidin-2-amine] | 80 | 6.4 | 77 |
| CS(=O)(Cc1cc(F)cc(Nc2ncc(F)c(-c3ccc(F)c4ccoc34)n2)c1)=NC#N (racemic) [Example 7, (rac)-[(3-Fluoro-5-{[5-fluoro-4-(4-fluoro-1-benzofuran-7-yl)pyrimidin-2-yl]amino}benzyl)(methyl)-oxido-λ^6-sulfanylidene]cyanamide] | 56 | 1.9 | 343 |
| CS(=N)(=O)Cc1cc(F)cc(Nc2ncc(F)c(-c3ccc(F)c4ccoc34)n2)c1 (racemic) [Example 10, (rac)-5-Fluoro-4-(4-fluoro-1-benzofuran-7-yl)-N-{3-fluoro-5-[(S-methylsulfonimidoyl)-methyl]-phenyl}-pyrimidin-2-amine] | 50 | 3.2 | 563 |
| CS(=N)(=O)Cc1cc(F)cc(Nc2ncc(F)c(-c3ccc(F)c4ccoc34)n2)c1 (single isomer, unassigned) [Example 12, 5-Fluoro-4-(4-fluoro-1-benzofuran-7-yl)-N-{3-fluoro-5-[(S-methylsulfonimidoyl)-methyl]-phenyl}-pyrimidin-2-amine] | 48 | 0.99 | 1263 |
| CS(=O)(Cc1cccc(Nc2ncc(F)c(-c3ccc(F)c4ccoc34)n2)c1)=NC#N (racemic) [Example 1, (rac)-[(3-{[5-Fluoro-4-(4-fluoro-1-benzofuran-7-yl)pyrimidin-2-yl]amino}benzyl)(methyl)oxido-λ^6-sulfanylidene]cyanamide] | 75 | 0.9 | 622 |
| CS(=N)(=O)Cc1cccc(Nc2ncc(F)c(-c3ccc(F)c4ccoc34)n2)c1 (single isomer, unassigned) [Example 5, 5-Fluoro-4-(4-fluoro-1-benzofuran-7-yl)-N-{3-[(S-methylsulfonimidoyl)-methyl]-phenyl}-pyrimidin-2-amine] | 89 | 5.6 | 143 |
| CS(=O)(Cc1cc(Nc2ncc(F)c(-c3ccc(F)c4ccoc34)n2)cc(S(F)(F)(F)(F)F)c1)=NC#N (racemic) [Example 17, (rac)-{[3-{[5-fluoro-4-(4-fluoro-1-benzofuran-7-yl)pyrimidin-2-yl]amino}-5-(pentafluoro-λ^6-sulfanyl)benzyl](methyl)oxido-λ^6-sulfanylidene}cyanamide] | 257 | 7.4 | 197 |
| CS(=N)(=O)Cc1cc(Nc2ncc(F)c(-c3ccc(F)c4ccoc34)n2)cc(S(F)(F)(F)(F)F)c1 (racemic) [Example 18, (rac)-5-Fluoro-4-(4-fluoro-1-benzofuran-7-yl)-N-{3-[(S-methylsulfonimidoyl)methyl]-5-(pentafluoro-λ^6-sulfanyl)phenyl}pyrimidin-2-amine] | 73 | 4.4 | 350 |
| CS(=O)(Cc1cccc(Nc2ncc(F)c(-c3ccc(F)c4ccoc34)n2)c1)=NC#N (single isomer, unassigned) [Example 3, [(3-{[5-Fluoro-4-(4-fluoro-1-benzofuran-7-yl)pyrimidin-2-yl]amino}benzyl)(methyl)oxido-λ^6-sulfanylidene]cyanamide] | 45 | 1 | 475 |
| CS(=O)(Cc1cccc(Nc2ncc(F)c(-c3ccc(F)c4ccoc34)n2)c1)=NC#N (single isomer, unassigned) [Example 2, [(3-{[5-Fluoro-4-(4-fluoro-1-benzofuran-7-yl)pyrimidin-2-yl]amino}benzyl)(methyl)oxido-λ^6-sulfanylidene]cyanamide] | 19 | 1.1 | 321 |
